Measured values reported in patent publication US20240373852A1, “COMPOSITION FOR ALLEVIATING DROUGHT STRESS COMPRISING AMINO ACID” (CJ CheilJedang Corporation, priority 2022, published 2024).

Test system: Arabidopsis thaliana
Assay: Drought stress alleviation plate assay, single amino acid spray on Arabidopsis thaliana seedlings on PEG-treated medium
Format: in vivo
Details: for growth and development of above- and below-ground tissues (fresh weight of above-ground tissues, root length): drought stress-induced medium (PEG 20% treated), amino acid aqueous solution 0.05% (w/w) or 0.1% (w/w) sprayed 1 ml/plate, 3 days intervals, 4 times, compared to water or A company's product (AP); for function in alleviating drought stress and promoting plant growth: laboratory condition (plate assay), conclusion from Example 1-2 and 1-3
Text: In order to select an individual amino acid having function in alleviating drought stress among 20 kinds of amino acids (histidine, sodium glutamate, proline, threonine, tryptophan, valine, alanine, arginine, asparagine, aspartic acid, cysteine, glutamine, glycine, leucine, lysine, methionine, phenylalanine, serine, or tyrosine), Arabidopsis thaliana was trans-planted in drought stress-induced medium, and an amino acid aqueous solution comprising each amino acid (0.05% (w/w) or 0.1% (w/w)) was treated, then the fresh weight of the above-ground tissue and growth and development of the root (main root) of Arabidopsis thaliana were investigated.
Arabidopsis thaliana seeds (provided by Konkuk University plant development genomics lab) were put in a 2% Sodium hypochlorite, 0.05% Tween 20 solution and sterilized for 1 minute, then washed with water 4 times. The sterilized seeds were incubated in dark and cold (4 degrees) for 3 days.
Arabidopsis thaliana seeds were sown in a plant growth medium (½ MS; Murashige and Skoog Medium, Duchefa Biochem), and grow for 6 days in the growth chamber. The growth condition of plants is as follows: • Temperature: 23° C.; humidity: 60˜65%; light: light 16 hours/dark 8 hours
The drought stress-induced medium was prepared by the method as below.
After 24 hours, the PEG solution was removed and dried at a room temperature under a sterile condition.
6 days-old Arabidopsis thaliana seedlings grown in normal plant growth medium were transferred to the drought stress-induced medium (PEG 20% treated) or a control medium (PEG untreated).
Immediately after transfer seedlings on the drought-stress induced medium, an individual amino acid aqueous solution (0.05% (w/w) or 0.1% (w/w)) was sprayed on the plants; 1 ml/plate, 3 days intervals, for 4 times. As a control group, instead of the amino acid aqueous solution, water (DW, distilled water) or A company's drought stress-alleviating product (AP product, comprising Pro 9%, MSG 2.5%, Asp 0.9%) (Ajinomoto Fertilizers, Amino proline) was sprayed by the same method.
After that, the fresh weight, and root growth and development of Arabidopsis thaliana were investigated.

SMILES: NCC(=O)O [glycine]
- growth and development of above- and below-ground tissues (fresh weight of above-ground tissues, root length): excellent
- function in alleviating drought stress and promoting plant growth: positive function

SMILES: N[C@@H](CC(=O)O)C(=O)O [aspartic acid]
- growth and development of above- and below-ground tissues (fresh weight of above-ground tissues, root length): excellent
- function in alleviating drought stress and promoting plant growth: positive function

SMILES: N[C@@H](CCC(=O)[O-])C(=O)[O-].[Na+].[Na+] [sodium glutamate]
- growth and development of above- and below-ground tissues (fresh weight of above-ground tissues, root length): excellent
- function in alleviating drought stress and promoting plant growth: positive function

SMILES: N[C@@H](Cc1c[nH]cn1)C(=O)O [histidine]
- growth and development of above- and below-ground tissues (fresh weight of above-ground tissues, root length): excellent
- function in alleviating drought stress and promoting plant growth: positive function

SMILES: N[C@@H](Cc1ccccc1)C(=O)O [phenylalanine]
- growth and development of above- and below-ground tissues (fresh weight of above-ground tissues, root length): excellent
- function in alleviating drought stress and promoting plant growth: positive function

SMILES: C[C@H](N)C(=O)O [alanine]
- growth and development of above- and below-ground tissues (fresh weight of above-ground tissues, root length): excellent
- function in alleviating drought stress and promoting plant growth: positive function

SMILES: NC(=O)CC[C@H](N)C(=O)O [glutamine]
- growth and development of above- and below-ground tissues (fresh weight of above-ground tissues, root length): excellent
- function in alleviating drought stress and promoting plant growth: positive function

SMILES: N=C(N)NCCC[C@H](N)C(=O)O [arginine]
- growth and development of above- and below-ground tissues (fresh weight of above-ground tissues, root length): excellent
- function in alleviating drought stress and promoting plant growth: positive function

SMILES: N[C@@H](Cc1c[nH]c2ccccc12)C(=O)O [tryptophan]
- growth and development of above- and below-ground tissues (fresh weight of above-ground tissues, root length): excellent
- function in alleviating drought stress and promoting plant growth: positive function

SMILES: CC(C)[C@H](N)C(=O)O [valine]
- growth and development of above- and below-ground tissues (fresh weight of above-ground tissues, root length): excellent
